Data as given in patent publication US7642320B2, “Polymer additives with improved permanence and surface affinity” (Ciba Specialty Chemicals Corporation, priority 2001, dated 2010).

Test: Solubility in polar media (methanol, ambient temperature)
Type: physicochemical

CCC(C)(C)c1cc(-n2nc3ccccc3n2)c(O)c(C(C)(C)CC)c1 [Tinuvin ® 328]
Solubility in methanol (wt %): 0.6 wt %
